Reference: patent US9353146B2, “Acylation derivatives of paridis saponins I, preparation method therefor and application thereof” (HANGZHOU BENSHENG PHARMACEUTICAL CO., LTD., priority 2012, dated 2016)
Converted amounts (≈) assume the structure as drawn.

Key:
[1] = test system: NB4 (acute promyelocytic leukemia, AML); assay: Anti-leukemia cell growth inhibition, MTT method, 72 h; type: cell-based, human; details: for IC50 / IC90: Homo sapiens
Description: (§1) Leukemia cell lines: leukemia cell lines: K562/adr (drug-resistant, chronic myeloid leukemia, CML), NB4 (acute promyelocytic leukemia, AML), and Kasumi-1 (acute myeloid leukemia M2 type, AML-M2), all of which were donated by Cancer Research Institute of Zhejiang University, China.
(§2) 6000 well-growing leukemia cells were obtained and inoculated into wells of a 96-well cell culture plate. The culture medium used was the 1640 cell culture medium containing 10% fetal bovine serum. After adding the Polyphyllin I derivatives with 5′-acylated arabinofuranosyl of different concentrations and mixing uniformly, the plate was placed in a carbon dioxide cell incubator (5% CO2) at 37° C. and incubated for 72 hours. Then the viable cell concentration was determined by the MTT method. In this experiment, the cell viability in control group (not treated with any compound) is set as 100%. On such basis, the cell viability (%) after treatment of the compound and the 50% inhibiting concentration for the leukemia cell growth at 72 hours (IC50 value and IC90 value of 72 hours) were calculated.

A549 (human lung cancer) = assay: Anti-human solid tumor cell growth inhibition, MTT method, 72 h; type: cell-based; details: for IC50 / IC90: Homo sapiens, A549
Description: (§3) Human solid tumor cell lines: A549 (human lung cancer) and SK-OV-3 (ovarian cancer cell), all of which are purchased from China Center For Type Culture Collection; RKO (human colon adenocarcinoma cell) and MG-63 (osteosarcoma), all of which are purchased from Fuxiang Bio-tech Co. Ltd., Shanghai, China; Hela (human cervical cancer cell), donated by Cancer Research Institute of Zhejiang University, China.
(§4) 4000 well-growing human solid tumor cells were obtained and inoculated into wells of a 96-well cell culture plate. The culture medium used was DMEM High Glucose cell culture medium containing 10% fetal bovine serum. The plate is placed in a carbon dioxide cell incubator (5% CO2) at 37° C. and incubated for 24 hours. After adding the Polyphyllin I derivatives with 5′-acylated arabinofuranosyl group of different concentrations and mixing uniformly, the plate was continued to be placed in a carbon dioxide cell incubator (5% CO2) at 37° C. and incubated for 72 hours. Then the viable cell concentration was determined by the MTT method and the cell viability (%) after drug treatment was calculated. In this experiment, the cell viability of control group (not treated with any compound) is set as 100%.

[2] = test system: Hela (human cervical cancer cell); assay: as above; type: cell-based; details: for IC50 / IC90: Homo sapiens, HeLa
Description: as §3, §4

[3] = test system: RKO (human colon adenocarcinoma cell); assay: as above; type: cell-based; details: for IC90: Homo sapiens
Description: as §3, §4

[4] = test system: K562/adr (drug-resistant, chronic myeloid leukemia, CML); assay: Anti-leukemia cell growth inhibition, MTT method, 72 h; type: cell-based, human; details: for IC50 / IC90: Homo sapiens, K562/Adr
Description: as §1, §2

[5] = test system: Kasumi-1 (acute myeloid leukemia M2 type, AML-M2); assay: as above; type: cell-based, human; details: for IC50: Homo sapiens, Kasumi 1
Description: as §1, §2

MG-63 (osteosarcoma) = assay: Anti-human solid tumor cell growth inhibition, MTT method, 72 h; type: cell-based; details: for IC50 / IC90: Homo sapiens, MG-63
Description: as §3, §4

[6] = test system: SK-OV-3 (ovarian cancer cell); assay: as above; type: cell-based
Description: as §3, §4

[7] = test system: nasopharyngeal carcinoma CNE-2 cell line; details: HUA Yonghong et al. 2011; cited from earlier work
[8] = test system: nasopharyngeal carcinoma CNE-2 cell line; details: DDP as positive control; HUA Yonghong et al. 2011; cited from earlier work
[9] = test system: human hepatocellular carcinoma SMMC-7721 cell line; details: in vitro; XIAO Meifang et al. 2011; cited from earlier work

SMILES	IC50 [1] [µg/mL]	IC90 [1] [µg/mL]	IC50 (A549 (human lung cancer)) [µg/mL]	IC90 (A549 (human lung cancer)) [µg/mL]	IC50 [2] [µg/mL]	IC90 [2] [µg/mL]	IC90 [3] [µg/mL]	IC50 [4] [µg/mL]	IC90 [4] [µg/mL]	IC50 [5] [µg/mL]	IC50 (MG-63 (osteosarcoma)) [µg/mL]	IC90 (MG-63 (osteosarcoma)) [µg/mL]	also measured
C[C@@H]1CC[C@@]2(OC1)OC1CC3C4CC=C5C[C@@H](O[C@@H]6O[C@H](CO)[C@@H](OC7O[C@@H](COC(=O)c8cccs8)[C@H](O)[C@H]7O)[C@H](O)[C@H]6OC6O[C@@H](C)[C@H](O)[C@@H](O)[C@H]6O)CC[C@]5(C)C4CC[C@]3(C)C1[C@@H]2C (stereo partly shown) [BS-PP-09]	1.11 (≈ 1.15 µM)	3.92 (≈ 4.06 µM)	1.6 (≈ 1.66 µM)	13 (≈ 13.5 µM)	0.55 (≈ 0.57 µM)	2 (≈ 2.07 µM)	5.25 (≈ 5.44 µM)						
C[C@@H]1CC[C@@]2(OC1)OC1CC3C4CC=C5C[C@@H](O[C@@H]6O[C@H](CO)[C@@H](OC7O[C@@H](COC(=O)c8ccco8)[C@H](O)[C@H]7O)[C@H](O)[C@H]6OC6O[C@@H](C)[C@H](O)[C@@H](O)[C@H]6O)CC[C@]5(C)C4CC[C@]3(C)C1[C@@H]2C (stereo partly shown) [BS-PP-10]	0.83 (≈ 0.875 µM)	2.82 (≈ 2.97 µM)	0.86 (≈ 0.906 µM)	10.2 (≈ 10.8 µM)	0.45 (≈ 0.474 µM)	2.01 (≈ 2.12 µM)	5.46 (≈ 5.75 µM)	0.45 (≈ 0.474 µM)	2.23 (≈ 2.35 µM)	0.78 (≈ 0.822 µM)	0.33 (≈ 0.348 µM)	0.85 (≈ 0.896 µM)	IC50 ([6]; Homo sapiens, SK-OV-3): 0.65 µg/mL (≈ 0.685 µM); IC90 ([6]; Homo sapiens, SK-OV-3): 0.97 µg/mL (≈ 1.02 µM)
CC(=O)OC[C@@H]1OC(O[C@H]2[C@H](O)[C@@H](OC3O[C@@H](C)[C@H](O)[C@@H](O)[C@H]3O)[C@H](O[C@H]3CC[C@@]4(C)C(=CCC5C6CC7O[C@]8(CC[C@@H](C)CO8)[C@@H](C)C7[C@@]6(C)CCC54)C3)O[C@@H]2CO)[C@H](O)[C@H]1O (stereo partly shown) [BS-PP-11]	0.94 (≈ 1.05 µM)	2.48 (≈ 2.76 µM)	0.83 (≈ 0.925 µM)	10.2 (≈ 11.4 µM)	0.62 (≈ 0.691 µM)	2.57 (≈ 2.86 µM)		0.42 (≈ 0.468 µM)	2.32 (≈ 2.59 µM)		0.33 (≈ 0.368 µM)	0.76 (≈ 0.847 µM)	
C[C@@H]1CC[C@@]2(OC1)OC1CC3C4CC=C5C[C@@H](O[C@@H]6O[C@H](CO)[C@@H](OC7O[C@@H](COC(=O)C8CC8)[C@H](O)[C@H]7O)[C@H](O)[C@H]6OC6O[C@@H](C)[C@H](O)[C@@H](O)[C@H]6O)CC[C@]5(C)C4CC[C@]3(C)C1[C@@H]2C (stereo partly shown) [BS-PP-12]	1.22 (≈ 1.32 µM)	3.96 (≈ 4.29 µM)	0.86 (≈ 0.932 µM)	7.38 (≈ 7.99 µM)	0.5 (≈ 0.542 µM)	3.19 (≈ 3.46 µM)	6.08 (≈ 6.59 µM)	0.42 (≈ 0.455 µM)	2.14 (≈ 2.32 µM)	0.86 (≈ 0.932 µM)			
C[C@@H]1CC[C@@]2(OC1)OC1CC3C4CC=C5C[C@@H](O[C@@H]6O[C@H](CO)[C@@H](OC7O[C@@H](COC(=O)c8ccc(F)cc8Cl)[C@H](O)[C@H]7O)[C@H](O)[C@H]6OC6O[C@@H](C)[C@H](O)[C@@H](O)[C@H]6O)CC[C@]5(C)C4CC[C@]3(C)C1[C@@H]2C (stereo partly shown) [BS-PP-15]	1.19 (≈ 1.18 µM)	3.4 (≈ 3.36 µM)	1.8 (≈ 1.78 µM)	9.9 (≈ 9.79 µM)	0.68 (≈ 0.672 µM)	3.51 (≈ 3.47 µM)	5.13 (≈ 5.07 µM)	0.76 (≈ 0.751 µM)	2 (≈ 1.98 µM)				
C[C@@H]1CC[C@@]2(OC1)O[C@H]1C[C@H]3[C@@H]4CC=C5C[C@@H](O[C@@H]6O[C@H](CO)[C@@H](O[C@@H]7O[C@@H](CO)[C@H](O)[C@H]7O)[C@H](O)[C@H]6O[C@@H]6O[C@@H](C)[C@H](O)[C@@H](O)[C@H]6O)CC[C@]5(C)[C@H]4CC[C@]3(C)[C@H]1[C@@H]2C [PP, 4-O-arabinofuranosyl-2-O-rhamnopyranosyl-β-D-glucopyranosyldioscin, reference compound]													K562/adr IC50 [4]: 0.87 µg/mL; K562/adr IC90 [4]: 2.98 µg/mL; Kasumi-1 IC50 [5]: 0.92 µg/mL; NB4 IC50 [1]: 1.84 µg/mL; NB4 IC90 [1]: 6.75 µg/mL; A549 IC50 (A549 (human lung cancer)): 1.86 µg/mL; A549 IC90 (A549 (human lung cancer)): 14.63 µg/mL; Hela IC50 [2]: 0.77 µg/mL; Hela IC90 [2]: 4.86 µg/mL; MG-63 IC50 (MG-63 (osteosarcoma)): 0.37 µg/mL; MG-63 IC90 (MG-63 (osteosarcoma)): 0.97 µg/mL; RKO IC90 [3]: 8.48 µg/mL; SK-OV-3 IC50 [6]: 0.70 µg/mL; SK-OV-3 IC90 [6]: 1.70 µg/mL; effects on the proliferation of CNE-2 cells [7]: time- and dose-dependent inhibitory effects; radiosensitizing effects on CNE-2 cell line [8]: concentration-dependent radiosensitizing effects; effect on proliferation of SMMC-7721 cells [9]: inhibit the proliferation of hepatocellular carcinoma SMMC-7721 cells in a time- and concentration-dependent manner
